Test results published in patent US12336973B2, “Cancer therapeutic compositions and methods targeting DNAse1L3” (Providence Health & Services—Oregon, priority 2020, dated 2025).

Tested on: dendritic cells
Test: Dendritic cell maturation (CCR7 expression by flow cytometry) in co-culture with untreated or irradiated cancer cells
Assay type: cell-based
Conditions: DCs cultured with untreated (0Gy) or irradiated (8Gy) cancer cells; 0, 50 or 100 micromolar FCA; flow cytometry 24 hours after culturing
Protocol: FIG. 4 depicts CCR7 expression in DCs that were cultured with cancer cells, where the cancer cells were untreated (0Gy) or irradiated (8Gy). These co-cultures were treated with 0, 50, or 100 micromolar Fmoc-d-cyclohexylalanine (FCA) to inhibit DNAse1L3.
Dendritic cells were cultured (with untreated or irradiated cancer cells) and treated with increasing doses of FCA, an inhibitor of DNAse1L3 (FIG. 4). Cancer cells were co-cultured with dendritic cells and were treated with 0, 50, or 100 micromolar Fmoc-d-cyclohexylalanine (FCA) to inhibit DNAse1L3.
CCR7 expression on DCs was assessed by flow cytometry 24 hours after culturing.

Question: `O=C(N[C@H](CC1CCCCC1)C(=O)O)OCC1c2ccccc2-c2ccccc21` [FCA, Fmoc-d-cyclohexylalanine] was tested. Which “dendritic cell maturation assessed by upregulation of markers including CCR7” value did it give?
Answer: The value was “stimulates DC maturation”.
